Patent US20100310484A1, “NOVEL PEPTIDES, USE THEREOF IN COSMETIC AND COSMECEUTIC APPLICATIONS, AND COMPOSITIONS COMPRISING SAME” (Innovactiv Inc., priority 2007, published 2010)
Lip = lipoyl residue of R or S configuration

What was measured:
[1] = tested on: normal human melanocytes; experiment: Comet test: internal photo protection against UVA- and UVB-induced DNA strand breaks; type: cell-based; conditions: peptide 3 × 10^−8 M, 2 h at 37° C., non treated cells 100%, irradiated cells 0%; for CGP (%) coefficient of genomic protection against UVA: then UVA 365 nm, 0.8 J/cm^2; for CGP (%) coefficient of genomic protection against UVB: then UVB 312 nm, 0.06 J/cm^2
Description: The proto protective ability of peptides A1 and B1 against UVA and UVB was evaluated using a Comet test according to the protocol of De Meo (De Meo et al. Mutation Res. 1991; 260; 295-306).
The comet test enables the quantification of DNA strand breaks induced by a genotoxic agent.
Material: Primary culture of normal human melanocytes.
Treatment: Cells were treated for 2 h at 37° C. with peptides A1 and B1 separately at 3×10^−8 M and then exposed to UVA (365 nm, 0.8 J/cm^2) or UVB (312 nm/0.06 J/cm^2).
Results are reported in Table 1 below as a coefficient of genomic protection against UVA or UVB (CGP %).

[2] = tested on: Keratinocytes NCTC-2544; experiment: UVA-induced oxidative lesions (formation of 8-oxo D guanosine) in keratinocytes; type: cell-based, human; conditions: 24 h + 30 min re-stimulation, UVA 15 J/cm^2, UVA-irradiated cells 100%, non treated cells 0%
Description: Material: Keratinocytes NCTC-2544.
Treatment: Keratinocytes were incubated with either peptide (A1 or B1) for 24 h, re-stimulated with the same peptide for 30 minutes and then irradiated with UVA (15 J/cm^2).
Results: The cells exposed to UVs are subjected to damages/lesions induced by oxidative stress. The oxydative damages or lesions were monitored with the formation of 8-oxo D guanosine and the effect of the peptides was expressed as a percentage of inhibition of the production of oxidative damages/lesions.

[3] = tested on: IL-1α-induced IL-8 production; experiment: Inhibition of IL-1α-induced IL-8 production (ELISA) in normal human dermal fibroblasts; type: cell-based; conditions: concomitant with IL-1α for 24 hours
[4] = tested on: glutathione; experiment: Glutathione regeneration in the presence of a superoxide anion by fluorometry (HRP/scopoletine); type: biochemical; conditions: glutathione 10^−4 to 5×10^−5 M with or without peptide 10^−4 to 5×10^−5 M, HRP 3 μg/ml, reading at 180 seconds
Text: Peroxydase (Horseradish peroxydase or HRP) transforms H2O2 into O2^•− which reacts on fluorescent scopoletine and transforms it into a non fluorescent species. A rapid decrease in fluorescence is observed as a function of O2^•− release. In the presence of a scavenger for radical O2^•− (such as glutathione), the decrease in fluorescence is less pronounced. (Antioxidant Characterisation, Methodology and Mechanism, Barry Halliwell, Biochemical Pharmacology, 49, 1341-1348, (1995)) and (The scopoletin assay for hydrogen peroxide, a review and a better method, Jean T. Corbett, J. Biochem. Biophys. Methods, 18, 297-308 (1989)).
Material: A fluorometer set at 394 nm (excitation state) with a slot of 6, and 455 nm (emitting state) with a slot of 8 was used. Continuous data collection was made over a period of 180 seconds. The data obtained at the end of 180 seconds was compared to that obtained with a negative control (without scavenger) and that with a positive control (without free radicals).
The tested mixture comprised HRP (3 μg/ml), scopoletine (5×10^−6M), glutathione (10^−4 to 5×10^−5M), with or without peptide B1 (10^−4 to 5×10^−5 M). An oxygenated water (H2O2) solution was added immediately before reading the first fluorescence measure.
Results are presented in FIG. 3 and are expressed as the percentage of radical scavenging activity as compared to the positive control. […]

Row | Substance | CGP (%) coefficient of genomic protection against UVA [1] [%] | CGP (%) coefficient of genomic protection against UVB [1] [%] | % INHIBITION of the production of oxidative damages/lesions ([2]; peptide 1 nM) [%] | % INHIBITION of the production of oxidative damages/lesions ([2]; peptide 100 nM) [%] | INHIBITION of IL-8 production ([3]; peptide 10 pM) [%] | INHIBITION of IL-8 production ([3]; peptide 1 nM) [%] | glutathione regeneration activity (radical scavenging activity compared to positive control) [4]
1 | Lip-His-DPhe-Arg-Trp-NH2 [Peptide B1] | 69.9 | 85.8 | −50 | −76 | 56 | 60 | displayed a glutathione regeneration activity
2 | Lip-Lys-Gly-His-Lys-NH2 (Lip-KGHK-NH2) [Peptide A1] | 93 | 46.2 | −27 | −53 | – | – | –
